Among the data in patent US10351546B2, “Pyridin-3-yl acetic acid derivatives as inhibitors of human immunodeficiency virus replication” (priority 2015, dated 2019) are EC50 values, retold here.

In this test the test system is NL-RLuc virus. Description: Inhibition of HIV replication (NL-RLuc luciferase reporter virus in MT-2 cells). The class given is cell-based. To be noted: Human immunodeficiency virus 1, MT2, 120 h. An outline of the steps: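 MT-2 cells were infected with NL4-3-derived virus carrying Renilla luciferase in place of part of nef, in RPMI/10% FBS, with serial compound dilutions. Luciferase read after 5 days of multicycle replication. EC50 from the median effect equation, at least 2 experiments.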

Read-outs that look alike come from different tables or passages of the source. A value given as a limit tells only on which side of the number the result lay.

For `Cc1cc(F)ccc1CN1CCc2cc(-c3c(CN4CCC(O)CC4)nc(C)c([C@H](OC(C)(C)C)C(=O)O)c3N3CCC(C)(C)CC3)ccc2C1` [Example 135, (S)-2-(tert-Butoxy)-2-(4-(4,4-dimethylpiperidin-1-yl)-5-(2-(4-fluoro-2-methylbenzyl)-1,2,3,4-tetrahydroisoquinolin-6-yl)-6-((4-hydroxypiperidin-1-yl)methyl)-2-methylpyridin-3-yl)acetic acid], where the note is “read-out: Activity”, the EC50 was below 0.1 µM.
The same measure, in the same setting: then `Cc1cc(F)ccc1CN1CCc2cc(-c3c(CN4CCN(C)CC4)nc(C)c([C@H](OC(C)(C)C)C(=O)O)c3N3CCC(C)(C)CC3)ccc2C1` [Example 136, (S)-2-(tert-Butoxy)-2-(4-(4,4-dimethylpiperidin-1-yl)-5-(2-(4-fluoro-2-methylbenzyl)-1,2,3,4-tetrahydroisoquinolin-6-yl)-2-methyl-6-((4-methylpiperazin-1-yl)methyl)pyridin-3-yl)acetic acid], with below 0.1 µM; and `Cc1cc(F)ccc1CN1CCc2cc(-c3c(CN(C)CC4CCOCC4)nc(C)c([C@H](OC(C)(C)C)C(=O)O)c3N3CCC(C)(C)CC3)ccc2C1` [Example 137, (S)-2-(tert-Butoxy)-2-(4-(4,4-dimethylpiperidin-1-yl)-5-(2-(4-fluoro-2-methylbenzyl)-1,2,3,4-tetrahydroisoquinolin-6-yl)-2-methyl-6-((methyl((tetrahydro-2H-pyran-4-yl)methyl)amino)methyl)pyridin-3-yl)acetic acid], with below 0.1 µM; and `Cc1cc(F)ccc1CN1CCc2cc(-c3c(CN4[C@@H]5CC[C@H]4CN(C)C5)nc(C)c([C@H](OC(C)(C)C)C(=O)O)c3N3CCC(C)(C)CC3)ccc2C1` [Example 138, (S)-2-(tert-Butoxy)-2-(4-(4,4-dimethylpiperidin-1-yl)-5-(2-(4-fluoro-2-methylbenzyl)-1,2,3,4-tetrahydroisoquinolin-6-yl)-2-methyl-6-(((1R,5S)-3-methyl-3,8-diazabicyclo[3.2.1]octan-8-yl)methyl)pyridin-3-yl)acetic acid], with below 0.1 µM.
On the same count and under the same terms, then `Cc1cc(F)ccc1CN1CCc2cc(-c3c(CN)nc(C)c([C@H](OC(C)(C)C)C(=O)O)c3N3CCC(C)(C)CC3)ccc2C1` [Example 139, (S)-2-(6-(Aminomethyl)-4-(4,4-dimethylpiperidin-1-yl)-5-(2-(4-fluoro-2-methylbenzyl)-1,2,3,4-tetrahydroisoquinolin-6-yl)-2-methylpyridin-3-yl)-2-(tert-butoxy)acetic acid], with below 0.1 µM; and `CC(=O)NCc1nc(C)c([C@H](OC(C)(C)C)C(=O)O)c(N2CCC(C)(C)CC2)c1-c1ccc2c(c1)CCN(Cc1ccc(F)cc1C)C2` [Example 140, (S)-2-(6-(Acetamidomethyl)-4-(4,4-dimethylpiperidin-1-yl)-5-(2-(4-fluoro-2-methylbenzyl)-1,2,3,4-tetrahydroisoquinolin-6-yl)-2-methylpyridin-3-yl)-2-(tert-butoxy)acetic acid], with below 0.1 µM.
On to `Cc1nnc(C(=O)NCc2nc(C)c([C@H](OC(C)(C)C)C(=O)O)c(N3CCC(C)(C)CC3)c2-c2ccc3c(c2)CCN(Cc2ccc(F)cc2C)C3)o1` [Example 141, (S)-2-(tert-Butoxy)-2-(4-(4,4-dimethylpiperidin-1-yl)-5-(2-(4-fluoro-2-methylbenzyl)-1,2,3,4-tetrahydroisoquinolin-6-yl)-2-methyl-6-((5-methyl-1,3,4-oxadiazole-2-carboxamido)methyl)pyridin-3-yl)acetic acid], for which the EC50 (read-out: Activity) was below 0.1 µM.
As to `Cc1cc(F)ccc1CN1CCc2cc(-c3c(CNC(=O)C(=O)N(C)C)nc(C)c([C@H](OC(C)(C)C)C(=O)O)c3N3CCC(C)(C)CC3)ccc2C1` [Example 142, (S)-2-(tert-Butoxy)-2-(6-((2-(dimethylamino)-2-oxoacetamido)methyl)-4-(4,4-dimethylpiperidin-1-yl)-5-(2-(4-fluoro-2-methylbenzyl)-1,2,3,4-tetrahydroisoquinolin-6-yl)-2-methylpyridin-3-yl)acetic acid], the EC50 (read-out: Activity) was below 0.1 µM.
The same measure, in the same setting: then `CC(=O)N(C)Cc1nc(C)c([C@H](OC(C)(C)C)C(=O)O)c(N2CCC(C)(C)CC2)c1-c1ccc2c(c1)CCN(Cc1ccc(F)cc1C)C2` [Example 143, (S)-2-(tert-Butoxy)-2-(4-(4,4-dimethylpiperidin-1-yl)-5-(2-(4-fluoro-2-methylbenzyl)-1,2,3,4-tetrahydroisoquinolin-6-yl)-2-methyl-6-((N-methylacetamido)methyl)pyridin-3-yl)acetic acid], with below 0.1 µM.
Take `Cc1ncn(Cc2nc(C)c([C@H](OC(C)(C)C)C(=O)O)c(N3CCC(C)(C)CC3)c2-c2ccc3c(c2)CCN(Cc2ccc(F)cc2C)C3)n1` [Example 144, (S)-2-(tert-Butoxy)-2-(4-(4,4-dimethylpiperidin-1-yl)-5-(2-(4-fluoro-2-methylbenzyl)-1,2,3,4-tetrahydroisoquinolin-6-yl)-2-methyl-6-((3-methyl-1H-1,2,4-triazol-1-yl)methyl)pyridin-3-yl)acetic acid]: the EC50 by setting is: (read-out: Activity) below 0.1 µM; (read-out: EC50 μM) 0.025 µM.
For `Cc1cc(F)ccc1CN1CCc2cc(-c3c(Cn4ncnc4C)nc(C)c([C@H](OC(C)(C)C)C(=O)O)c3N3CCC(C)(C)CC3)ccc2C1` [Example 145, (S)-2-(tert-butoxy)-2-(4-(4,4-dimethylpiperidin-1-yl)-5-(2-(4-fluoro-2-methylbenzyl)-1,2,3,4-tetrahydroisoquinolin-6-yl)-2-methyl-6-((5-methyl-1H-1,2,4-triazol-1-yl)methyl)pyridin-3-yl)acetic acid], the EC50 (read-out: Activity) is below 0.1 µM.
The same measure, in the same setting: then `Cc1cc(F)ccc1CN1CCc2cc(-c3c(Cn4cnnc4C)nc(C)c([C@H](OC(C)(C)C)C(=O)O)c3N3CCC(C)(C)CC3)ccc2C1` [Example 146, (S)-2-(tert-butoxy)-2-(4-(4,4-dimethylpiperidin-1-yl)-5-(2-(4-fluoro-2-methylbenzyl)-1,2,3,4-tetrahydroisoquinolin-6-yl)-2-methyl-6-((3-methyl-4H-1,2,4-triazol-4-yl)methyl)pyridin-3-yl)acetic acid], with below 0.1 µM; and `Cc1cc(F)ccc1CN1CCc2cc(-c3c(N)nc(C)c([C@H](OC(C)(C)C)C(=O)O)c3N3CCC(C)(C)CC3)ccc2C1` [Example 147, (S)-2-(6-Amino-4-(4,4-dimethylpiperidin-1-yl)-5-(2-(4-fluoro-2-methylbenzyl)-1,2,3,4-tetrahydroisoquinolin-6-yl)-2-methylpyridin-3-yl)-2-(tert-butoxy)acetic acid], with below 0.1 µM; and `Cc1cc(N2CCc3cc(-c4c(N)nc(C)c([C@H](OC(C)(C)C)C(=O)O)c4N4CCC(C)(C)CC4)ccc3C2)ncn1` [Example 148, (S)-2-(6-Amino-4-(4,4-dimethylpiperidin-1-yl)-2-methyl-5-(2-(6-methylpyrimidin-4-yl)-1,2,3,4-tetrahydroisoquinolin-6-yl)pyridin-3-yl)-2-(tert-butoxy)acetic acid], with below 0.1 µM.
The same measure, in the same setting: the figure for `Cc1nc(N)c(-c2ccc3c(c2)CCN(c2ncnc4c2cnn4C)C3)c(N2CCC(C)(C)CC2)c1[C@H](OC(C)(C)C)C(=O)O` [Example 149, (S)-2-(6-Amino-4-(4,4-dimethylpiperidin-1-yl)-2-methyl-5-(2-(1-methyl-1H-pyrazolo[3,4-d]pyrimidin-4-yl)-1,2,3,4-tetrahydroisoquinolin-6-yl)pyridin-3-yl)-2-(tert-butoxy)acetic acid] is below 0.1 µM.
